# In the NIST ThermoML archive (doi:10.1021/acs.jced.8b00908):
# ± gives the expanded uncertainty stated by the source.
# Conditions: Liquid, Ebulliometric method (Recirculating still)
compound,measurement,setting,value
ClC(Cl)Cl [trichloromethane],vapor or sublimation pressure,334.12 K,101.3 ± 3.5 kPa
CCOC(C)=O [ethyl acetate],vapor or sublimation pressure,350.28 K,101.3 ± 3.5 kPa
C=CCO [2-propenol],vapor or sublimation pressure,369.94 K,101.3 ± 3.5 kPa
CCC(=O)OC [methyl propanoate],vapor or sublimation pressure,352.47 K,101.3 ± 3.5 kPa
